According to US20220184054A1, “ANTI-VIRAL ACTIVITY OF VPS34 INHIBITORS” (priority 2020, published 2022):
Read-outs that look alike come from different tables or passages of the source.

Columns and labels:
[1] = Compound cytotoxicity (CC50) counter screen in Vero E6 cells; type: cell-based; settings: African green monkey, read-out: CC50 (general cytotoxic effects in Vero E6 cells)
Experimental: Compound cytotoxicity (CC50) is assessed in a BSL-2 counter screen as follows: Host cells in media are added in 25 μl aliquots (4000 cells/well) to each well of assay ready plates prepared with test compounds as above. Cells only (100% viability) and cells treated with hyamine at 100 μM final concentration (0% viability) serve as the high and low signal controls, respectively, for cytotoxic effect in the assay. DMSO is maintained at a constant concentration for all wells (0.3%) as dictated by the dilution factor of stock test compound concentrations. After incubating plates at 37° C./5% CO2 and 90% humidity for 72 hours, 30 μl Cell Titer-Glo (Promega) is added to each well. Luminescence is read using a BMG PHERAstar plate reader following incubation at room temperature for 10 minutes to measure cell viability.

in vitro = settings: human
SARS-CoV-2 = assay: microbe, parasite or virus in culture; type: cell-based; settings: Severe acute respiratory syndrome coronavirus 2, A549, 48 h; read-out: IC50 for inhibition of SARS CoV-2 mediated cell killing
[2] = system: SARS CoV-2 (USA_WA1/2020); assay: SARS CoV-2 CPE assay for antiviral activity (Vero E6 host cells, Cell Titer-Glo); type: cell-based; settings: read-out: IC50 for inhibition of SARS CoV-2 mediated cell killing
[3] = Vero C1008, Vero E6 cells, 10-point dose response, high concentration 15 μM, 72 hours

O=c1cc(-c2ccnc3[nH]ncc23)cc(N2CCCCC2C(F)(F)F)[nH]1 (stereo not shown) [Compound 1]
CC50 at 72 h [1]: 15000 nM | CC50 (in vitro): 8000 nM | IC50 (SARS-CoV-2): 510 nM | IC50 [2, 3]: 470 nM

N#Cc1cc2c(-c3cc(-c4ccccc4C(F)(F)F)[nH]c(=O)c3)ccnc2[nH]1 [Compound 2]
CC50 at 72 h [1]: > 10000 nM | CC50 (in vitro): > 10000 nM | IC50 (SARS-CoV-2): 1570 nM | IC50 [2, 3]: 3010 nM

O=c1cc(-c2ccnc3[nH]c(C4CC4)cc23)cc(N2CCCCC2C(F)(F)F)[nH]1 (stereo not shown) [Compound 3]
CC50 at 72 h [1]: 2830 nM | CC50 (in vitro): 482 nM | IC50 (SARS-CoV-2): 29 nM | IC50 [2, 3]: 114 nM

Cc1ccc(-c2cc3c(-c4cc(N5CCOCC5C(F)(F)F)[nH]c(=O)c4)ccnc3[nH]2)s1 (stereo not shown) [Compound 4]
CC50 at 72 h [1]: 1430 nM | CC50 (in vitro): 411 nM | IC50 (SARS-CoV-2): 158 nM | IC50 ([2]; Vero C1008, 72 h): 1040 nM
